Assay results taken from ChEMBL document CHEMBL1201862, “PubChem BioAssay data set” (2004).
Blank lines part the entries; values can stand above or below the molecule they belong to. Calls of active or inactive are those of the source.

Assays:
[1] = blockers of CRF-binding protein–CRF-R2 complex – cell-based, uHTS hits, 384-well, dose response (AID 651639); format: functional, Homo sapiens; details: read-out: IC50_Mean
[2] = molecular target: T1, Corticotropin-releasing factor receptor 2/Corticotropin-releasing factor-binding protein (Homo sapiens, UniProt P24387+Q13324); test: activators of CRF receptor 2 with binding protein – uHTS hits, confirmation (AID 602473); format: functional; details: read-out: EC50_Mean
T1 sequence (Q13324 whole entry): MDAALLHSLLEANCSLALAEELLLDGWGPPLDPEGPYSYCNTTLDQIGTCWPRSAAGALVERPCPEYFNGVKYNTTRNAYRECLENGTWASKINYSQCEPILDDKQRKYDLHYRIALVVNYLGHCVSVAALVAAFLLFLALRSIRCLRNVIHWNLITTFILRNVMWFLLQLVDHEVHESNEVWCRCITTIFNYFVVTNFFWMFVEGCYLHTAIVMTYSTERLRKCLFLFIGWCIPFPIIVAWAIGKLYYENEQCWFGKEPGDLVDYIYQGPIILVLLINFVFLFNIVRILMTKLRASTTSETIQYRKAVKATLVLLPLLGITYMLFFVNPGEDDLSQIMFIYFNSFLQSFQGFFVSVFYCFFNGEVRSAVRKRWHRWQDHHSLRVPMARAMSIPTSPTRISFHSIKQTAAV
T1 sequence (P24387 whole entry): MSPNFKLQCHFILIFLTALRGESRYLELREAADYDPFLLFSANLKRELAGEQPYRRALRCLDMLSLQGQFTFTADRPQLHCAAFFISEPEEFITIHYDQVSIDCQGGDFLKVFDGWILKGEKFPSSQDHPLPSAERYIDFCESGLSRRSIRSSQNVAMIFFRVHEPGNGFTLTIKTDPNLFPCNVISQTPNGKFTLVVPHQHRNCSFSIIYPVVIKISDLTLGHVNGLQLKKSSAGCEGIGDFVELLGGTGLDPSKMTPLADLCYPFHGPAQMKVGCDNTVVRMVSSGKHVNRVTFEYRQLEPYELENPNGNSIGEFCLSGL

[3] = molecular target: T1, Corticotropin-releasing factor receptor 2/Corticotropin-releasing factor-binding protein; test: Dose Response confirmation of uHTS hits for small molecule antagonists of the CRF-binding protein and CRF-R2 receptor complex.; format: functional; details: read-out: IC50_Mean
cells = format: functional, cell-based; details: HEK-CNG
Galanin receptor type 3 = molecular target: T2, Galanin receptor type 3 (Homo sapiens, UniProt O60755); test: Fluorescence-based cell-based primary high throughput dose response assay to identify antagonists of the Galanin Receptor 3 (GalR3).; format: functional
T2 sequence (O60755 whole entry): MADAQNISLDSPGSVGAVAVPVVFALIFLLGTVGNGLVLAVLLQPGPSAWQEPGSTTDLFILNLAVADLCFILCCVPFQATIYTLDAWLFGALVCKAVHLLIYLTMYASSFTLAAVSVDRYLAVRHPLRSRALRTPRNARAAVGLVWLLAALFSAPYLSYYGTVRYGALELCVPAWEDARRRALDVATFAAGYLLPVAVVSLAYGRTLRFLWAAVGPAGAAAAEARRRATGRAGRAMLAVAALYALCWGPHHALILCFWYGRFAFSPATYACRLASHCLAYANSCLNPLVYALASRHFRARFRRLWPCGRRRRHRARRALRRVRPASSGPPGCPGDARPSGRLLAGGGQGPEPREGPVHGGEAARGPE

[4] = molecular target: Photoreceptor-specific nuclear receptor (Homo sapiens, UniProt Q9Y5X4); format: functional, cell-based;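 note: CHO-S cells with Gal4-NCOR and VP16-NR2E3 two-hybrid luciferase reporter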
Photoreceptor-specific nuclear receptor, sequence (Q9Y5X4 whole entry, the tested form may be a part): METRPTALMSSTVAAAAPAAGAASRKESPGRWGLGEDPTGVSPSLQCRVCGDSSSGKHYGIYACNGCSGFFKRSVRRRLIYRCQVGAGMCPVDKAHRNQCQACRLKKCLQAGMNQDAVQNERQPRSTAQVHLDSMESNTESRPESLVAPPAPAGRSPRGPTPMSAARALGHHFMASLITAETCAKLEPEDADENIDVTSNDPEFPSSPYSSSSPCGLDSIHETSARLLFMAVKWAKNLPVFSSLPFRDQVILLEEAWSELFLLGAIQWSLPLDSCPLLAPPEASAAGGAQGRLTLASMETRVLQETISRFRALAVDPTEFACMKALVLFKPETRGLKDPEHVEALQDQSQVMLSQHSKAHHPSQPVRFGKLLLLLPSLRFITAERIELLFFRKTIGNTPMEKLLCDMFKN

[5] = molecular target: T3, Carboxy-terminal domain RNA polymerase II polypeptide A small phosphatase 1 (Homo sapiens, UniProt Q9GZU7); test: CTDSP1 inhibitors, concentration-response, biochemical, absorbance readout, ultra-high-throughput screen actives (AID 540297); format: functional
T3 sequence (Q9GZU7 whole entry): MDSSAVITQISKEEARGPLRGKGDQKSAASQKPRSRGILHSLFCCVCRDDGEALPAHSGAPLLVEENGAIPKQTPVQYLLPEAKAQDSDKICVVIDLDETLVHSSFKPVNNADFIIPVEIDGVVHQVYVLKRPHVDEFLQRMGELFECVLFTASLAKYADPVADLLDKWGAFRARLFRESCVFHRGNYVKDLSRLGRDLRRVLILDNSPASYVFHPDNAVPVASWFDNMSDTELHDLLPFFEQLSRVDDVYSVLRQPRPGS

INS1 = test: INS-1E survival protection against cytokine death – cell-based, luminescence, retest, dose response (AID 449756); format: functional; details: Rattus norvegicus;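 note: cell death triggered by IL-1 beta plus TNF-alpha plus IFN-gamma mixture; protective hits raise ATP signal compared with cytokine alone wells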
[6] = A549 cell cytotoxicity, dose response, cytotoxicity control, plate reader, cherry-pick, antagonist series (AID 743412); format: functional, cell-based
[7] = toxicity toward HepG2 liver cells – cell-based, plate reader, cherry-pick, antagonist series, cytotoxicity control, dose response (AID 743416); format: functional
[8] = molecular target: T4, Microphthalmia-associated transcription factor (Homo sapiens, UniProt O75030); test: reducers of TRPM1 reporter luminescence, concentration series – cell-based, SK-MEL-5, cherry-picked, set 3, MITF inhibitor project, dose response (AID 493073); format: functional;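 note: SK-MEL-5 melanoma cells with luciferase driven by the MITF target TRPM1 promoter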
T4 sequence (O75030 whole entry): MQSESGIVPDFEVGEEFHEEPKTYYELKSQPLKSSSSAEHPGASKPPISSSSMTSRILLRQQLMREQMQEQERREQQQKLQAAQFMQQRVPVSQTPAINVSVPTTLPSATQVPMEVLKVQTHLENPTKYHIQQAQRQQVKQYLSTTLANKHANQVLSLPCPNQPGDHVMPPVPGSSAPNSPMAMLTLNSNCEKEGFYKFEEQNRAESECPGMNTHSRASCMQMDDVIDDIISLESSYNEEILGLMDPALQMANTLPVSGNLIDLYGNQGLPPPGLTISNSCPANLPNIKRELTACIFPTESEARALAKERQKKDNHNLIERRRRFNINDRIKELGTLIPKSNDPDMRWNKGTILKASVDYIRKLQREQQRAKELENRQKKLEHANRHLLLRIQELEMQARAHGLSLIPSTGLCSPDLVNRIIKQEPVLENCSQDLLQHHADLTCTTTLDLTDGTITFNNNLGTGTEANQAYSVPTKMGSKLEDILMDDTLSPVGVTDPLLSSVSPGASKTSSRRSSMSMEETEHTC

A-375 = test: MITF: Counter assay: A375 proliferation Measured in Cell-Based System Using Plate Reader - 2084-03_Inhibitor_Dose_DryPowder_Activity. [Related pubchem assays (depositor defined):AID488944]; format: functional; details: Homo sapiens
[9] = blockade of melanocortin 4 receptor signaling – cell-based, plate reader, cherry pick, counter-screen for LGR2 antagonist project, dose response (AID 743444); format: functional;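 note: transfected HEK 293 cells stimulated with alpha-MSH peptide; potency of inhibitors of the alpha-MSH evoked signal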
[10] = blockers of bursicon-stimulated LGR2 cAMP reporter – cell-based, HEK293, CRE-luciferase reporter, cherry pick, set 2, dose response (AID 743343); format: functional;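 note: transfected cells were stimulated with diluted bursicon conditioned medium after compound addition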
[11] = molecular target: T5, Ubiquitin-conjugating enzyme E2 N (Homo sapiens, UniProt P61088); format: functional;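 note: Dose-response confirmation in a TR-FRET assay detecting UBC13-driven polyubiquitin chain formation, inhibition measured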
T5 sequence (P61088 whole entry): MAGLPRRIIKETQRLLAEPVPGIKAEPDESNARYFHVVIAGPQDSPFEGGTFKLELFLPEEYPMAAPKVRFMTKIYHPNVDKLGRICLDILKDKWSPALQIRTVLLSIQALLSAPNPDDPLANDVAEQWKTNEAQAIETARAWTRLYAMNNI

[12] = molecular target: T6, DNA repair protein RAD52 homolog (Homo sapiens, UniProt P43351); format: functional, biochemical
T6 sequence (P43351 whole entry): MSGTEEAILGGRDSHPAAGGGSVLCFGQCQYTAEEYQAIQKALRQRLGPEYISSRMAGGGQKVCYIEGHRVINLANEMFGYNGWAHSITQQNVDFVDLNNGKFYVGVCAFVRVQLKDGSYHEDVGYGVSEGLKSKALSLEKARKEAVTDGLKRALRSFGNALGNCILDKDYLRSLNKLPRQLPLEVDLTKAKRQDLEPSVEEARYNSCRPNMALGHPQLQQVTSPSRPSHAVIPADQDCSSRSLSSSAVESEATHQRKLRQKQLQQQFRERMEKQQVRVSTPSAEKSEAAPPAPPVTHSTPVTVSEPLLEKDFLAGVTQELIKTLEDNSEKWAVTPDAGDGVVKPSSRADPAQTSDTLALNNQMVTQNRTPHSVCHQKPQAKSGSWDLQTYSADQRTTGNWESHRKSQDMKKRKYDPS

IC50 [1]: 15 µM (active) | EC50 [2]: > 53 µM (inactive) | IC50 [3]: 3.76 µM (active)
SMILES: CCOc1ccc(-n2c(SCC(=O)NCc3ccco3)nc3c4ccccc4nc-3c2O)cc1

SMILES: CN(C(=O)Oc1ccc(C(=O)c2ccc(Cl)cc2)cc1)c1ccccc1
IC50 [1]: > 20 µM (inactive) | EC50 [2]: > 53 µM (inactive) | IC50 [3]: < 0.368 µM (active)

SMILES: FC(F)(F)c1ccccc1Cc1c(-c2ccco2)nc2c3ccccc3ccn12
EC50 (cells): > 29.9 µM (inactive) | IC50 (Galanin receptor type 3): 13 µM (inactive)

IC50 [4]: 4.25 µM (active)
SMILES: COCCCNC(=S)N1CCN(c2nc(-c3ccc(Cl)cc3)cs2)CC1

IC50 [5]: 3.84 µM (active)
SMILES: COC(=O)c1cc(NC(=O)Cc2cccs2)cc(C(=O)OC)c1

IC50 [1]: > 20 µM (inactive) | EC50 [2]: > 53 µM (inactive) | IC50 [3]: 15.6 µM (active)
SMILES: Fc1ccccc1CSc1nnnn1-c1ccc2c(c1)OCO2

SMILES: CCCOc1ccc(CSc2nc3ccccc3[nH]2)cc1
EC50 (cells): > 29.9 µM (inactive) | IC50 [4]: 4.25 µM (active) | IC50 (Galanin receptor type 3): 2.27 µM (active) | AC50 (INS1): 3.73 µM (active)

SMILES: CSc1ccc(C(=O)C2CCCN(C(=O)CCc3c(C)nn(C)c3C)C2)cc1 (stereo unspecified)
EC50 (cells): > 29.9 µM (inactive) | IC50 (Galanin receptor type 3): 1.15 µM (active)

SMILES: COC(=O)c1ccc(Nc2cc(C)nc3ccc(C)cc23)cc1
AC50 [6]: 4.31 µM (active) | AC50 [7]: 13.2 µM (active) | AC50 [8]: 6.85 µM (active) | AC50 (A-375): 36.8 µM (active)

SMILES: O=C(O)c1cccc(-c2noc(-c3cccc(Cl)c3)n2)c1
AC50 [7]: > 52 µM (inactive) | AC50 [9]: 7.56 µM (active) | AC50 [10]: 5.67 µM (active)

IC50 [1]: 7.1 µM (active) | IC50 [11]: > 20 µM (inactive) | EC50 [2]: 42.3 µM (active) | IC50 [3]: 2.82 µM (active) | AC50 [12]: 17.3 µM (active)
SMILES: CC[C@@H](C)[C@@H]1CN([C@@H](CN2CCC[C@H]2CN2C(N)=NC[C@H]2CC(C)C)C(C)C)C(=N)N1CCc1ccc(Cl)c(Cl)c1
